One data set deals with 4UbFL in 4T1 cells. Kind of data set: 4UbFL reporter assay, 4T1. It counts as cell-based. To be noted: 4T1 stably expressing 4UbFL, 4 h. On the procedure: Sub-confluent cultures of cells were transfected with 4UbFL plasmid using TransIT 2020 reagent (Mirus Bio). Cells were seeded at 10,000 cells/well in 96-well plates 48 h post transfection, and incubated with compounds or vehicle (DMSO) at the doses and for the times indicated. Luciferase activity in cell lysate was determined with a luciferase assay kit (Promega) according to the manufacturer’s instructions. Bioluminescence was measured using a Glomax Multidetection system (Promega).
Fig 3 Impact of RA475 on proteasome function. […] Actin was used as loading control. […] After a 4 h incubation, the cells were lysed and the luciferase activity in each cell lysate was determined with a luciferase assay kit (Promega) according to the manufacturer’s instructions. Bioluminescence was measured by using a luminometer (Glomax Multidetection system, Promega) E) A patch was shaved of hair on one leg of CD-1 mice, and 10 μg 4UbFL plasmid in 20 μL of PBS was injected into the quadriceps femoralis muscle followed immediately by injection of the 2 Needle Array to 5 mm depth encompassing the injection site and square wave electroporation (ElectroSquarePorator 833, BTX-2 Needle array 5mm gap, Harvard apparatus) delivered as eight pulses at 106V for 20 ms with 200 ms intervals. […] Equally sized areas were analyzed using Living Image 2.20 software. […]

For another data set, the system named is HeLa. Kind of data set: MTT cytotoxicity assay, HeLa. The format is cell-based. Particulars: Homo sapiens, 72 h. The method, then: (§1) All cell lines were obtained from the American Type Culture Collection (ATCC) and cultured in the specified medium supplemented with 10% fetal bovine serum, 100 IU/mL penicillin, and 100 μg/mL streptomycin at 37°C in a humidified 5% CO2/95% air incubator. Synthesis of new compounds is described in S1 File, and >95% purity of RA475, Up284 and its analogs were confirmed by NMR and MS. To assess drug cytotoxicity, cells were seeded at 2,500 cells/well (10,000 cells/well for MM lines) in 100 μL medium in 96-well plate as triplicates and after 24 h treated with compounds for a further 72 h. To assess cytotoxicity, the cells were incubated for 2 h at 37°C according to the manufacturer’s protocol with the Thiazolyl Blue Tetrazolium Bromide (20 μL/well of 5 mg/mL stock solution in water) (Sigma, M5655) and A570 measured using a Benchmark Plus microplate spectrophotometer (BIO-RAD). IC50 was estimated using Graphpad Prism 7 software.

The test system of another data set is PEO4. Briefly: MTT cytotoxicity assay, PEO4. To be noted: Homo sapiens, PEO4, 72 h. It counts as cell-based. The method, then: as §1
We elected to focus on RA475 and expanded the analysis in a larger panel of cell lines including those from common cancer types and normal tissues. […] This panel included another pair of cell lines isolated from another ovarian cancer patient with drug-resistant disease (PEO4) and pre-treatment (PEO1), and both were similarly sensitive to RA475.

The test system of the next data set is PACS. Kind of data set: MTT cytotoxicity assay, PACS. The format is cell-based. Particulars: 72 h. The method, then: as §1
(Tetrazolium assays rely on reduction of a dye to a coloured formazan, in cell work by metabolically active cells.)

Data set [1] deals with human serum albumin protein (Homo sapiens, UniProt P02768). Briefly: Human serum albumin protein binding. Particulars: 1 μM, dialysis 5 h. The format is in vitro ADME. On the procedure:
(§2) The assay was performed in a multiple-use 96-well dialysis unit (HTD96b dialyzer). Each individual well unit consisted of 2 chambers separated by a vertically aligned dialysis membrane of predetermined pore size (MWCO 12–14 kDa). 120 μL of non-diluted plasma spiked with the compound (1 μM, final DMSO concentration 1%) was added to one chamber, and the same volume of PBS buffer pH 7.4 to the other chamber. The HTD96b dialyzer was covered with adhesive sealing film and incubated 5 h at 37°C while shaking at 100 rpm. For sample preparation, an aliquot of the contents of each chamber was mixed with the same volume of the blank opposite matrix. In order to define non-specific loss of the compound during this assay, a standard solution was created by mixing an aliquot of spiked plasma with blank buffer without dialysis. Two aliquots of the standard solution were incubated at 37°C, shaking at 100 rpm for 5 h (recovery samples). The other two aliquots were immediately diluted with acetonitrile and stored at 4°C until analysis (stability samples). All samples were diluted 5-fold with internal standard diluted in 100% methanol with subsequent plasma proteins sedimentation by centrifuging at 6000 rpm for 5 minutes. Supernatants were analyzed using LC-MS/MS. The percentage of plasma protein bound compound, recovery and stability were calculated using following equations. […]

Data set [2] in a line: Human plasma protein binding, equilibrium dialysis. Particulars: pH 7.4, dialysis 5 h. It counts as in vitro ADME. On the procedure:
as §2
For orientation: In equilibrium dialysis free small molecules cross a membrane that holds back macromolecules.

Details of data set [3]: method as in PMID 37315065. To be noted: mice; cited from earlier work.

Sequence of human serum albumin protein (P02768 25-609): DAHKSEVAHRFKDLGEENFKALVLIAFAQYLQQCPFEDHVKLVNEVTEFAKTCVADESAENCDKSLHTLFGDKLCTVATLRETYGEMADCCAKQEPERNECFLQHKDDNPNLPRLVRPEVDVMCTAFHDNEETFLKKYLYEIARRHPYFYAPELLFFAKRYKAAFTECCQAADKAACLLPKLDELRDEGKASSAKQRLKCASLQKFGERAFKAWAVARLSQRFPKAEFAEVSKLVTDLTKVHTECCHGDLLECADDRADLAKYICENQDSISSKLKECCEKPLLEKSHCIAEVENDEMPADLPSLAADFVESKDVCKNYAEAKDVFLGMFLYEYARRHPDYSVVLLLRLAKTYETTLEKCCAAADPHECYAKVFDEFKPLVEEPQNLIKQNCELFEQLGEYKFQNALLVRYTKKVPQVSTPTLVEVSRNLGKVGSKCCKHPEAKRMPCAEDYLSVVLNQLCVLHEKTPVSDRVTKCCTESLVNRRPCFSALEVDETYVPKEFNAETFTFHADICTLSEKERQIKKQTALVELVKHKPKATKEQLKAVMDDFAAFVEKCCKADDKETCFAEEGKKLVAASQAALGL

A word on the IC50: it is the concentration that gives 50% inhibition. The term fraction unbound denotes free concentration divided by total concentration. Turning to `Cl.Cl.N#Cc1ccc(/C=C2/C(=O)/C(=C/c3ccc(C#N)cc3)C23CCN(C(=N)N)CC3)cc1` [RA475, 1,3-bis((E)-4-cyanobenzylidene)-2-oxo-7-azaspiro[3.5]nonane-7-carboximidamide dihydrochloride], the 4UbFL bioluminescence signal entry in the data set with 4UbFL in 4T1 cells is recorded as “dose dependent increases in bioluminescence signal”. Also, the concentration for half-maximal inhibition (IC50) with HeLa came to 213 nM; in the data set with PEO4, 260 nM; in the data set on PACS, 581 nM. In addition, in data set [1], the “binding to human serum albumin protein” value stood at 93.8%. The same compound gave a fraction unbound at 5 h, 1 μM in data set [2] of 0.009.
With `N#Cc1ccc(/C=C2/C(=O)/C(=C/c3ccc(C#N)cc3)C23CCNCC3)cc1` [Up284, reference compound], the IC50 was determined as 40 nM in the data set with HeLa, 61 nM in the data set with PEO4 and 125 nM with PACS. The IP bioavailability in data set [3] is recorded as 87%. Besides, in data set [3], the oral bioavailability was 23%.

The record behind these values is article PMC11239005, “Preclinical studies of RA475, a guanidine-substituted spirocyclic candidate RPN13/ADRM1 inhibitor for treatment of ovarian cancer” (PLOS ONE, 2024).
